Measurements published in US3989835A, “Method of using 6-substituted amino phenyl-2,3,5,6-tetra-hydro[2,1-b]thiazoles for controlling gastrointestinal nematodes” (American Cyanamid Company, priority 1974, dated 1976).
Structures can show the parent of a compound that is named as a salt. Where two headings read alike, the source gives them in different places.

Test system: Nematospiroides dubius
Assay: Anthelmintic efficacy against N. dubius in mice, single oral dose
Format: in vivo, Nematospiroides dubius (in albino female mice)
Conditions: for inhibition in vivo at 100 mg/kg: single oral dose 100 mg./Kg.; for inhibition in vivo at 60 mg/kg: single oral dose 60 mg./Kg.; for ED50: read-out: Approx. ED50; for inhibition in vivo at 50 mg/kg: single oral dose 50 mg./Kg.; for inhibition in vivo at 5 mg/kg: single oral dose 5.0 mg./Kg.
Protocol: Albino female mice are each inoculated with about 20 infectious larvae of Nematospiroides dubius. This nematode is a representative of the economical important trichostrongylis worms of ruminants and other hosts, and of nematodes in general. Twenty-two days after inoculation, groups of four randomly selected mice containing adult N. dubius are given single oral doses of test compounds dissolved or suspended in 0.4 ml. of water per 20 gram mouse. At 26 or 27 days after inoculation, treated mice and in each test four randomly selected groups of untreated mice are necropsied. The number of worms in the small intestine of each mouse are determined by microscopic examination. Average worm numbers for each treated group and for the untreated controls are computed and the percent efficacy determined by the customary formula:
(Average Worms in Control - Average Worms in Treated)/(Average Worms in Control) X 100.

[1] = Heligmosomoides polygyrus, po, molar-adjusted, read-out: Percent Nematospiroides Activity
[2] = as Base, single oral dose, mice, > indicates inactive at dose shown, hydrochloride
[3] = as Base, single oral dose, mice, > indicates inactive at dose shown
[4] = Heligmosomoides polygyrus, po, as Base, single oral dose, mice, > indicates inactive at dose shown
[5] = Heligmosomoides polygyrus, po, single oral dose 10 mg./Kg., molar-adjusted, read-out: Percent Nematospiroides Activity

## CS(=O)(=O)Nc1cccc(C2CN3CCSC3=N2)c1 (stereo not shown) [H--N--SO2 CH3]
[1]
  inhibition in vivo at 100 mg/kg: 100%

## O=[N+]([O-])c1cccc(C2CN3CCSC3=N2)c1 (stereo not drawn) [l HCl NO2 meta, l-6-(m-Nitrophenyl)-2,3,5,6-tetrahydroimidazo[2,1-b]thiazole hydrochloride, reference compound]
[2]
  Approx. ED50: 12 Mg./Kg.

## CC(C)N(C=O)c1cccc(C2CN3CCSC3=N2)c1 (stereo not shown) [(CH3)2 CH--N--CHO, N-isopropyl-3'-(2,3,5,6-tetrahydroimidazo[2,1-b]thiazol-6-yl) formanilide dihydrochloride]
Heligmosomoides polygyrus, po, single oral dose 40 mg./Kg., molar-adjusted, read-out: Percent Nematospiroides Activity
  inhibition in vivo at 40 mg/kg: 99%
[1]
  inhibition in vivo at 60 mg/kg: 100%

## Nc1ccc(C2CN3CCSC3=N2)cc1 (stereo not shown) [d 2HCl NH2 para, reference compound]
[3]
  Approx. ED50: > 20 Mg./Kg.

## Nc1ccc(C2CN3CCSC3=N2)cc1 (stereo not shown) [l 2HCl NH2 para, reference compound]
[4]
  ED50: > 10 mg/kg

## CC(=O)Nc1ccc(Br)c(C2CN3CCSC3=N2)c1 (stereo not shown) [Table XIII b1903]
[1]
  inhibition in vivo at 50 mg/kg: 100%
  inhibition in vivo at 100 mg/kg: 100%

## COc1ccc(CNc2cccc(C3CN4CCSC4=N3)c2)cc1 (stereo not shown) [Table XII b1718]
[5]
  inhibition in vivo at 10 mg/kg: 40%
Heligmosomoides polygyrus, po, single oral dose 20 mg./Kg., molar-adjusted, read-out: Percent Nematospiroides Activity
  inhibition in vivo at 20 mg/kg: 100%
[1]
  inhibition in vivo at 50 mg/kg: 100%
  inhibition in vivo at 100 mg/kg: 100%

## O=[N+]([O-])c1cccc(C2CN3CCSC3=N2)c1 (stereo not drawn) [d HCl NO2 meta, d-6-(m-nitrophenyl)-2,3,5,6-tetrahydroimidazo[2,1-b]thiazole hydrochloride, reference compound]
[2]
  Approx. ED50: > 30 Mg./Kg.

## CC(C)(C)C(=O)Nc1cccc(C2CN3C=CSC3=N2)c1 (stereo not shown) [5,6-dihydro HN-CO-C(CH3)3, 3'-(5,6-dihydroimidazo[2,1-b]thiazol-6-yl)pivalanilide]
[4]
  ED50: 7.5 mg/kg
[1]
  inhibition in vivo at 5 mg/kg: 35%
[5]
  inhibition in vivo at 10 mg/kg: 80%

## O=C(Cc1ccccc1)Nc1cccc(C2CN3CCSC3=N2)c1 (stereo not shown) [Table XII b1825]
Heligmosomoides polygyrus, po, single oral dose 2.0 mg./Kg., molar-adjusted, read-out: Percent Nematospiroides Activity
  inhibition in vivo at 2 mg/kg: 44%
[1]
  inhibition in vivo at 5 mg/kg: 76%
[5]
  inhibition in vivo at 10 mg/kg: 95%

## O=[N+]([O-])c1cccc(C2CN3CCSC3=N2)c1 (racemic) [dl HCl NO2 meta, dl-6-(m-nitrophenyl)-2,3,5,6-tetrahydroimidazo[2,1-b]thiazole hydrochloride, reference compound]
[4]
  ED50: 15 mg/kg

## S=C=Nc1cccc(C2CN3CCSC3=N2)c1 (racemic) [dl Base N=C=S meta, reference compound]
Heligmosomoides polygyrus, po
  ED50: 20 mg/kg

## CC(=O)Nc1cccc(C2CN3CCSC3=N2)c1 (stereo not drawn) [H--N--CO--CH3 l-]
Single oral dose 4.0 mg./Kg., molar-adjusted
  Percent Nematospiroides Activity: 51%
Single oral dose 10 mg./Kg., molar-adjusted
  Percent Nematospiroides Activity: 100%

## CNc1ccc(C2CN3CCSC3=N2)cc1 (stereo not shown) [l 2HCl NH--CH3 para, reference compound]
[4]
  ED50: > 50 mg/kg

## O=CNc1ccc(C2CN3CCSC3=N2)cc1 (stereo not shown) [l Base NH--HCO para, reference compound]
[3]
  Approx. ED50: > 10 Mg./Kg.

## Nc1ccc(Br)c(C2CN3CCSC3=N2)c1 (stereo not shown) [Table XIII b1902]
Heligmosomoides polygyrus, po, single oral dose 30 mg./Kg., molar-adjusted, read-out: Percent Nematospiroides Activity
  inhibition in vivo at 30 mg/kg: 37%
[1]
  inhibition in vivo at 60 mg/kg: 97%

## O=CNc1ccc(C2CN3CCSC3=N2)cc1 (stereo not shown) [d Base NH--HCO para, reference compound]
[3]
  Approx. ED50: > 40 Mg./Kg.

## CC(CO)Nc1cccc(C2CN3CCSC3=N2)c1 (stereo not shown) [HN--CH(CH3)CH2 OH]
[1]
  inhibition in vivo at 5 mg/kg: 1%
  inhibition in vivo at 50 mg/kg: 67%
[5]
  inhibition in vivo at 10 mg/kg: 1%

## Oc1cccc(C2CN3CCSC3=N2)c1 (racemic) [dl OH meta, reference compound]
[4]
  ED50: > 10 mg/kg

## CC(C)C(=O)Nc1cccc(C2CN3C=CSC3=N2)c1 (stereo not shown) [5,6-dihydro HN-CO-CH(CH3)2, 3'(5,6-dihydroimidazo[2,1-b]thiazol-6-yl)isobutyranilide]
[4]
  ED50: 7.5 mg/kg
[1]
  inhibition in vivo at 5 mg/kg: 32%
[5]
  inhibition in vivo at 10 mg/kg: 68%

## O=[N+]([O-])c1ccccc1C1CN2CCSC2=N1 (racemic) [dl HCl NO2 ortho, reference compound]
[4]
  ED50: > 100 mg/kg

## O=[N+]([O-])c1ccc(C2CN3CCSC3=N2)cc1 (stereo not shown) [l HCl NO2 para, reference compound]
[3]
  Approx. ED50: 40 Mg./Kg.
